How the values were obtained:
[1] = Effect of pH on stability of micro-emulsions; assay type: physicochemical; conditions: maximum tocopherol acetate, line 6.4 of Example 1, dilutions 50%, 60%, 70%, 80%; buffer pH 3.4, 3.8, 5.4, 7.0, 8.6 replacing water
Source text: A buffer of different pH values (3.4, 3.8, 5.4, 7.0 and 8.6) replaced the water in the aqueous phase.

[2] = Source text: FIG. 6. […] The values assign the maximum amount of vitamin E that can be solubilized as a wt/wt percentage of the total micro-emulsion weight.
The maximum amount of vitamin E solubilized was compared among the different forms of vitamin E along line 6:4 in the five-component system of D-limonene/ethanol (1/1) as the oil phase, TWEEN 60 as surfactant, and water/1,2-propanediol (1/1) as the aqueous phase, in order to obtain insight into the difference in their interfacial behavior (FIG. 6).

Row | SMILES | stability of micro-emulsions at different pH [1] | solubilization capacity along the dilution line [2] | solubilization capacity when D-limonene was replaced by triacetin [2]
1 | CC(=O)Oc1c(C)c(C)c2c(c1C)CCC(C)(CCC[C@H](C)CCC[C@H](C)CCCC(C)C)O2 (stereo partly drawn) [Tocopherol Acetate, tocopherol acetate] | stable for over two months | – | –
2 | Cc1c(C)c2c(c(C)c1O)CC[C@@](C)(CCC[C@H](C)CCC[C@H](C)CCCC(C)C)O2 [alpha-tocopherol] | – | two main dramatic decreases in solubilization, after which a stabilization in solubilization is maintained | increased along all of the dilution line

Source: patent publication US20030228395A1, “Isotropic transparent structured fluids” (Archer-Daniels Midland Company, priority 2002, published 2003)
